Assay in all cases: inhibition of tumour cell growth, NCI panel, 48 h
Experiment [1] relates to HCC-2998 colon.
The test system of experiment [2] is DLD-1 colon.
Experiment [3] relates to SK-MEL-28 melanoma.
In experiment [4] the test system is MCF7 breast.
Experiment [5] deals with KM20L2 colon.
The subject of experiment [6] is U251 CNS.
Experiment [7] has as its system M19-MEL melanoma.
Experiment [8] has as its system NCI/ADR-RES ovarian.
Experiment [9] relates to OVCAR-5 ovarian.
Experiment [10] has as its system DMS 273 small cell lung.
The test system of experiment [11] is HOP-18 NSCLC.

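Briefly, cells in 96-well plates were exposed to five compound concentrations for 48 h, and endpoints were estimated by linear interpolation. TGI is the concentration that stops growth completely.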 Bounds are passed on as bounds.

For `COc1cc(C2c3cc4c(cc3[C@@H](Nc3ccc5c(c3)OCO5)C3COC(=O)[C@H]23)OCO4)cc(OC)c1O` (some centres not stated), the TGI in [1] is 3.42 µM; in experiment [2] it was 5.45 µM; in experiment [3] it was more than 95.3 µM; in [4] it was 10.1 µM; in [5] it was more than 24.3 µM; in experiment [6], 1.74 µM. Besides, the TGI in experiment [7] was more than 100 µM; in experiment [8] it was 41.6 µM; in experiment [9] it was more than 59.4 µM; in [10], 1.4 µM; in [11], 11 µM.

Consider `CSc1nc2c(ncn2C2OC(CO)C(O)C(O)C2O)c(=O)[nH]1` (configuration not stated), for which the TGI in [1], in experiment [2], in experiment [3], in experiment [4], in [5] and in [6] was more than 100 µM each time. Further, the TGI in experiment [7], in experiment [8], in experiment [9], in [10] and in [11] was more than 100 µM each time.

The record behind these values is PubChem BioAssay (NCI).
